Active and inactive are the calls of the source. No stated cut-off is given here; in the data, actives have a measured IC50 and inactives only a lower limit.

The assay deals with Envelope glycoprotein gp160 (Human immunodeficiency virus 1, UniProt Q6QLK5). The assay is described as follows: cell-free HIV fusion peptide-binding blockers – biochemical, uHTS, fluorescence dequenching, […] (AID 1986).
Envelope glycoprotein gp160, sequence (Q6QLK5 whole entry, the tested form may be a part): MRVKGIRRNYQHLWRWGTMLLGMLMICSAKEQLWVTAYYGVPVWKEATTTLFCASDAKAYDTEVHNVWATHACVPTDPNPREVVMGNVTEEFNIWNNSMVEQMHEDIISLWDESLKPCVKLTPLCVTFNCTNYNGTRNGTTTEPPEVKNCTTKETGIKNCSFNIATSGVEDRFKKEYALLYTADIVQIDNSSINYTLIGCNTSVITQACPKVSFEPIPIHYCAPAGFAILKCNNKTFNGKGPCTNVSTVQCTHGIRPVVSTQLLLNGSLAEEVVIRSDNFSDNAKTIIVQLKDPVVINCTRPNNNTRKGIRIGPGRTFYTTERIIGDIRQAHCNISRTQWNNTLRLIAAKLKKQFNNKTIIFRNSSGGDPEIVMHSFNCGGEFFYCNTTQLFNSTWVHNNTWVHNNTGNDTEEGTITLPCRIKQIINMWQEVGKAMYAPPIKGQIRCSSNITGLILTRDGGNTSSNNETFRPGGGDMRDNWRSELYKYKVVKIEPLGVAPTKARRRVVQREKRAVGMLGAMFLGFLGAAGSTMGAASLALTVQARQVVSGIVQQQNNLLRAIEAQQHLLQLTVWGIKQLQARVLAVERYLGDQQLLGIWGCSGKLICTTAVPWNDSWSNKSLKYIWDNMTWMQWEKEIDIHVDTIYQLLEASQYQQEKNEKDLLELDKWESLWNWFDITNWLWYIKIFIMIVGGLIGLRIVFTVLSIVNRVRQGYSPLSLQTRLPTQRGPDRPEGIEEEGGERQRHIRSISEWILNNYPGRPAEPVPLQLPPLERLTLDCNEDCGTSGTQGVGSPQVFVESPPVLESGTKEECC

Turning to `COc1cc(/C=C2\SC(=O)N(CC(=O)Nc3cccc(C)c3)C2=O)cc([N+](=O)[O-])c1O`, the half-maximal inhibitory concentration (IC50) (in general, the concentration that inhibits the measured activity by half) was 23.1 µM (active).

For the origin of these results see ChEMBL document CHEMBL1201862, “PubChem BioAssay data set” (2004).
